The text below walks through data of patent publication US8093380B2, “Compounds with the bicyclo[4.2.1]nonane system for the treatment of Flaviviridae infections” (Pharmasset, Inc., priority 2002, dated 2012).

Data set [1] is described as follows: Toxicity in Swiss outbred mice, IP for 6 consecutive days. The format is in vivo. The following applies: up to 100 mg/kg.
Data set [2] in a line: Hematology and blood chemistry in treated chimpanzees. The class given is in vivo. On the procedure: Hematology and blood chemistry report. The day 0 and day 14 samples were analyzed for hematological and blood chemistry parameters. Essentially, no changes in the baseline and after treatment samples were observed.
Data set [3] relates to HCV replicon. In words: HCV replicon system in Huh7 cells (real-time RT-PCR of replicon RNA). The following applies: for ΔCt HCV at 100 μM / EC50: Huh7 replicon cells; for ΔCt HCV at 100 μM: ΔCt of 3.3 = 1-log reduction in replicon production; for EC50: calculated from ΔCt values of dilution series. The format is cell-based. How it is done: The HCV replicon system in Huh7 cells.
Huh7 cells harboring the HCV replicon were cultivated in DMEM medium (high glucose, no pyruvate), supplemented with 10% fetal bovine serum, 1× non-essential amino acids, Pen-Strep-Glu (100 units/liter, 100 microgram/liter, and 2.92 mg/liter, respectively), and G418 (500 to 1000 microgram/milliliter). Antiviral screening assays were also done in the same medium without G418 as follows. To keep the cells in the logarithmic growth phase, cells were seeded in 96-well plates at low density (for example, 1000 cells per well). The test compound was then added immediately after seeding the cells, and they were incubated for 3 to 7 days at 37° C. in an incubator. The medium was then removed, and the cells were prepared for total RNA extraction (replicon RNA+host RNA). Replicon RNA was then amplified in a real-time RT-PCR (Q-RT-PCR) protocol, and quantified.
In such experiments, a way to express the antiviral effectiveness of a compound is to subtract the average threshold RT-PCR cycle of the negative control (Ctnegative) from the threshold RT-PCR cycle of the test compound (Cttestcompound). This value is called ΔCt (ΔCt=Cttestcompound−Ctnegative). A ΔCt value of 3.3 represents a 1-log reduction in replicon production.
The ΔCt values for each concentration allow the calculation of the 50% effective concentration (EC50).
Compounds were tested for inhibition of HCV RNA replication using the above assay.

Data set [4] in a line: Oral and IV administration to rhesus monkeys. The class given is in vivo. Particulars: 20 mg/kg.
For data set [5], the system named is human cell lines. In words: Toxicity in several human cell lines. The class given is cell-based.
Data set [6] concerns HCV. Kind of data set: 14-day oral treatment of chronically HCV-infected chimpanzees, serum HCV viral load by real-time RT-PCR. The format is in vivo. On the procedure:
Based on those toxicity data, a 14-day treatment (oral, QD at 5 mg/kg/day) of chronically HCV-infected chimpanzees was conducted. Viral RNA was extracted from the chronically infected chimpanzees serum samples in quadruplicate and the viral RNA pellets were dissolved in RNAse-free water. Subsequently, these RNA samples were amplified by real-time RT-PCR (Applied Biosystems, Foster City, Calif.) for the presence and quantity of the HCV nucleic acids. Primers and probes for HCV were designed using Primer Express (Applied Biosystems). Further details on the methodology will be published (Stuyver et al., 2002; manuscript submitted to Antimicrob. Agents Chemother.).
The results are expressed relative to the viral load in the pretreatment sample. Calculation of the viral load for each sample was based on 4 independent measurements of threshold RT-PCR cycles (Ct values). Mean±SD were calculated for each day's sample. The latter were used to express the observed viral load changes.
Two chimpanzees [Joseph (5.14 log10 IU/ml HCV) and Heppie (5.69 log10 IU/ml HCV)] were treated orally for 14 days with 5 mg/kg/day. The viral load changes that were observed are summarized below (FIG. 1): • 1. […] The viral load remained suppressed with a mean of 0.43 log10 IU/ml up to day 14.
In general terms: Real-time PCR tracks product formation cycle by cycle.

The test system of data set [7] is HCV. The following applies: ribavirin alone; cited from earlier work.

Where a name gives a salt, the structure may show the parent alone. Some results are limits rather than exact numbers.

For `O=c1ccc2nnn3c2n1[C@@H]1O[C@H](C3)C(O)C1O` (stereo partly drawn) [15 (Y = H, Z = CH), 9,5′-Cyclo-3-(β-D-ribofuranosyl)-1-deaza-8-azapurine-2-one], the toxicity entry in data set [1] is “no toxicity was apparent”. For the same molecule, the “death or significant weight loss” value in data set [1] (28 day monitoring) is “None of the mice died or lost significant weight”. Also, the “changes in hematological and blood chemistry parameters” value in data set [2] (day 0 versus day 14; oral 5 mg/kg/day; Z=CH), 5 mg/kg/day) is given as “No change”. Besides, the “hematological and blood chemistry parameters relative to normal range” value in data set [2] (throughout the study) is “remained in the normal range”. Also, the “ΔCt HCV at 100 μM” value in data set [3] was 4.48. In addition, the EC50 in data set [3] (Hepatitis C virus, Huh-7) is 20 µM. Moreover, in data set [3] (in words), the “in vitro antiviral activity against HCV” value is recorded as “demonstrated in vitro antiviral activity against HCV”. The untoward effects result in data set [4] (IV administration) and in data set [4] (oral administration) was “Neither oral administration nor IV administration to rhesus monkeys at 20 mg/kg caused any untoward effects” each time. In addition, the “toxicity in several human cell lines” value in data set [5] is reported as “practically no toxicity”. Moreover, the “reduction in viral load” value in data set [6] (day 4, 5 mg/kg/day QD, in words) is listed as “significant reduction”. Besides, the “maximal drop in HCV viral load” value in data set [6] (day 4, chimpanzee Heppie, oral 5 mg/kg/day QD) came out at 0.8 log10 IU/ml; in data set [6] (day 4, chimpanzee Joseph, oral 5 mg/kg/day QD), 0.5 log10 IU/ml. The “maximal drop in HCV viral load, mean for both animals” value in data set [6] (day 4, mean of both chimpanzees, oral 5 mg/kg/day QD) stood at 0.67 log10 IU/ml. Also, the viral load changes entry in data set [6] (up to 24 hr after administration of the first dose, oral 5 mg/kg/day) was “No viral load changes were observed”. Further, in data set [6] (up to day 14, oral 5 mg/kg/day QD), the “viral load suppression, mean” value worked out at 0.43 log10 IU/ml.

In the case of `O=c1ncc2nnn3c2n1[C@@H]1O[C@H](C3)C(O)C1O` (stereo partly shown) [15 (Y = H, Z = N)], the “ΔCt HCV at 100 μM” value in data set [3] is given as 3.6. Besides, the 50% effective concentration (EC50) in data set [3] (Hepatitis C virus, Huh-7) was less than 10 µM.

For `O=c1[nH]c(=O)n2c3c1nnn3CC1OC2C(O)C1O` [15 (Y = OH, Z = N), 9,5′Cyclo-3-(β-D-ribofuranosyl)-8-azaxanthine], in data set [3], the “ΔCt HCV at 100 μM” value was 6.3 and the EC50 was less than 10 µM.

For `O=c1[nH]c(=S)c2nnn3c2n1[C@@H]1O[C@H](C3)C(O)C1O` (stereo partly shown) [15 (Y = SH, Z = N)], the “ΔCt HCV at 100 μM” value in data set [3] was found to be 3.61. Moreover, the EC50 in data set [3] (Hepatitis C virus, Huh-7) was less than 6 µM.

As for `O=c1c(Br)cc2nnn3c2n1[C@@H]1O[C@H](C3)C(O)C1O` (stereo partly drawn) [71 (X = Br), 3,5′-Cyclo-6-bromo-4-(β-D-ribofuranosyl)-vic-triazolo[4,5-b]pyridin-5-one], the “ΔCt HCV at 100 μM” value in data set [3] came to 5.9. Besides, the EC50 in data set [3] (Hepatitis C virus, Huh-7) is less than 1 µM.

On to `O=c1c(Cl)cc2nnn3c2n1[C@@H]1O[C@H](C3)C(O)C1O` (stereo partly drawn) [71 (X = Cl), 3,5% Cyclo-6-chloro-4-(β-D-ribofuranosyl)-vic-triazolo[4,5-b]pyridin-5-one], for which, in data set [3], the “ΔCt HCV at 100 μM” value is 6.0. The EC50 in data set [3] (Hepatitis C virus, Huh-7) is less than 0.7 µM.

`CNc1nc(=O)n2c3c1nnn3C[C@H]1O[C@@H]2C(O)C1O` (stereo partly drawn) [72 (R = H, R′ = Me), 3,5′-Cyclo-7-methylamino-4-(β-D-ribofuranosyl)-vic-triazolo[4,5-b]pyridin-5-one]: the “ΔCt HCV at 100 μM” value in data set [3] is reported as 6.6. The EC50 in data set [3] (Hepatitis C virus, Huh-7) was less than 1 µM.

Consider `Nc1cc(=O)n2c3c1nnn3C[C@H]1O[C@@H]2C(O)C1O` (stereo partly drawn) [72 (R = R′ = H), 7-Amino-3,5′-cyclo-4-(β-D-ribofuranosyl)-vic-triazolo[4,5-b]pyridin-5-one], for which the “ΔCt HCV at 100 μM” value in data set [3] was determined as 5.7. The EC50 in data set [3] (Hepatitis C virus, Huh-7) is 4.5 µM.

In the case of `CC1(C)OC2C(O1)[C@H]1Cn3nnc4c(=S)[nH]c(=O)n(c43)[C@@H]2O1` (stereo partly shown) [73 (Y = SH)], in data set [3], the “ΔCt HCV at 100 μM” value amounted to 4.1. Besides, the EC50 in data set [3] (Hepatitis C virus, Huh-7) was 25 µM.

As to `C/N=c1/[nH]c(=O)n2c3c1nnn3C[C@H]1O[C@@H]2C(O)C1O` (stereo partly drawn) [75 (R = Me, R′ = H), 9,5′-Cyclo-3-(β-D-ribofuranosyl)-6-methylamino-8-azaxanthine], in data set [3], the “ΔCt HCV at 100 μM” value is 6.4. Besides, the 50% effective concentration (EC50) in data set [3] (Hepatitis C virus, Huh-7) is less than 6 µM.

Regarding `CO/N=c1/[nH]c(=O)n2c3c1nnn3C[C@H]1O[C@@H]2C(O)C1O` (stereo partly drawn) [75 (R = OMe, R′ = H), 9,5′-Cyclo-3-(β-D-ribofuranosyl)-6-methoxylamino-8-azaxanthine], in data set [3], the “ΔCt HCV at 100 μM” value is 6.5. In data set [3] (Hepatitis C virus, Huh-7), the EC50 is less than 5 µM.

On to `Nc1nc(=O)n2c3c1nnn3C[C@H]1O[C@@H]2C(O)C1O` (stereo partly drawn) [75 (R = R′ = H), 9,5′-Cyclo-3-(β-D-ribofuranosyl)-6-amino-8-azapurine-2-one hydrochloride], for which, in data set [3], the “ΔCt HCV at 100 μM” value is 5.3. For the same molecule, the EC50 in data set [3] (Hepatitis C virus, Huh-7) was 0.7 µM.

Regarding `CN(C)c1nc(=O)n2c3c1nnn3C[C@H]1O[C@@H]2C(O)C1O` (stereo partly drawn) [75 (R = R′ = Me), 9,5′-Cyclo-3-(β-D-ribofuranosyl)-6-dimethylamino-8-azaxanthine], the “ΔCt HCV at 100 μM” value in data set [3] amounted to 2.4.

Take `N#CCn1c(=O)c2nnn3c2n(c1=O)[C@@H]1O[C@H](C3)C(O)C1O` (stereo partly drawn) [77 (R = CH2CN), 1-Cyanomethyl-9,5′-cyclo-3-(β-D-ribofuranosyl)-8-azaxanthine]: the “ΔCt HCV at 100 μM” value in data set [3] was 4.7. In addition, in data set [3] (Hepatitis C virus, Huh-7), the EC50 was less than 6 µM.

For `Cn1c(=O)c2nnn3c2n(c1=O)[C@@H]1O[C@H](C3)C(O)C1O` (stereo partly drawn) [77 (R = CH3), 9,5′-Cyclo-1-methyl-3-(β-D-ribofuranosyl)-8-azaxanthine], the “ΔCt HCV at 100 μM” value in data set [3] is listed as 5.9. The EC50 in data set [3] (Hepatitis C virus, Huh-7) was 0.4 µM.

Regarding `O=c1ccc2nnn3c2n1[C@@H]1O[C@H](C3)C2OC(=S)OC21` (stereo partly shown) [82 (Y = H, Z = CH)], the “ΔCt HCV at 100 μM” value in data set [3] turned out to be 2.6.

`O=c1[nH]c(=O)n2c3c1nnn3C[C@H]1O[C@@H]2C2OC(=S)OC21` (stereo partly drawn) [82 (Y = OH, Z = N), 9,5′-Cyclo-3-(2′,3′O-thiocarbonyl-β-D-ribofuranosyl)-8-azaxanthine]: in data set [3], the “ΔCt HCV at 100 μM” value is on record as 4.7. Also, the EC50 in data set [3] (Hepatitis C virus, Huh-7) is 12 µM.

On to `O=c1ccc2nnn3c2n1[C@H]1CC(O)[C@@H](C3)O1` (stereo partly shown) [83 (Y = H, Z = CH)], for which, in data set [3], the “ΔCt HCV at 100 μM” value was 5.1. In data set [3] (Hepatitis C virus, Huh-7), the 50% effective concentration (EC50) is less than 6 µM.

Regarding `O=c1[nH]c(=O)n2c3c1nnn3C[C@H]1O[C@@H]2C(O)C1O` (stereo partly drawn) [83 (Y = OH, Z = N), 9,5% Cyclo-3-(2′-deoxy-β-D-erythropentofuranosyl)-8-azaxanthine], the “ΔCt HCV at 100 μM” value in data set [3] worked out at 2.1. Besides, in data set [3] (Hepatitis C virus, Huh-7), the 50% effective concentration (EC50) was 60 µM.

Consider `Cl.Nc1nc(=O)n2c3c1ncn3C[C@H]1O[C@@H]2C(O)C1O` (stereo partly drawn) [Compound 27, 6-Amino-5′,9-cyclo-3-(β-D-ribofuranosyl)-2-oxo-purine HCl salt], for which the “ΔCt HCV at 100 μM” value in data set [3] was 6.6. The concentration giving a half-maximal response (EC50) in data set [3] (Hepatitis C virus, Huh-7) was less than 3 µM.

Consider `O=c1[nH]c(=O)n2c3c1ncn3C[C@H]1O[C@@H]2C(O)C1O` (stereo partly drawn) [Compound 35, 5′,9-Cyclo-3-(β-D-ribofuranosyl)xanthine], for which, in data set [3], the “ΔCt HCV at 100 μM” value was determined as 6.0. For the same molecule, the EC50 in data set [3] (Hepatitis C virus, Huh-7) was 4 µM.

Take `O=c1[nH]c(=O)n2c3c1nnn3C[C@H]1O[C@@H]2C(O)C1O` (stereo partly shown) [Compound 65, 9,5′-Cyclo-carba-8-azaxanthosine]: the “ΔCt HCV at 100 μM” value in data set [3] worked out at 2.4.

For the molecule `OC1C(O)[C@H]2Cn3nnc4ccc(=S)n(c43)[C@@H]1O2` (stereo partly drawn) [Compound 70, 3,5% Cyclo-4-(β-D-ribofuranosyl)-vic-triazolo[4,5-b]pyridin-5-thione], the “ΔCt HCV at 100 μM” value in data set [3] worked out at 7.0. In data set [3] (Hepatitis C virus, Huh-7), the EC50 was 1 µM.

For the molecule `NC(=O)c1ncn([C@@H]2O[C@H](CO)[C@@H](O)[C@H]2O)n1` [Ribavirin, 1-β-D-ribofuranosyl-1H-1,2,4-triazole-3-carboxamide], the “patients in whom serum amino transferase levels are reduced to normal” value in data set [7] is on record as 40%.

The EC50 is the concentration that produces a half-maximal response.
